Assay results published in ChEMBL document CHEMBL1275376, “Development, validation, and use of quantitative structure-activity relationship models of 5-hydroxytryptamine (2B) receptor ligands to identify novel receptor binders and putative valvulopathic compounds among common drugs” (J Med Chem, 2010).

How the values were obtained:
[1] = target: T1, 5-hydroxytryptamine receptor 2B (Homo sapiens, UniProt P41595); test: Displacement of [3H]LSD from human cloned 5HT2B receptor expressed in CHO cells by liquid scintillation counting; type: cell-based
T1 sequence (P41595 whole entry): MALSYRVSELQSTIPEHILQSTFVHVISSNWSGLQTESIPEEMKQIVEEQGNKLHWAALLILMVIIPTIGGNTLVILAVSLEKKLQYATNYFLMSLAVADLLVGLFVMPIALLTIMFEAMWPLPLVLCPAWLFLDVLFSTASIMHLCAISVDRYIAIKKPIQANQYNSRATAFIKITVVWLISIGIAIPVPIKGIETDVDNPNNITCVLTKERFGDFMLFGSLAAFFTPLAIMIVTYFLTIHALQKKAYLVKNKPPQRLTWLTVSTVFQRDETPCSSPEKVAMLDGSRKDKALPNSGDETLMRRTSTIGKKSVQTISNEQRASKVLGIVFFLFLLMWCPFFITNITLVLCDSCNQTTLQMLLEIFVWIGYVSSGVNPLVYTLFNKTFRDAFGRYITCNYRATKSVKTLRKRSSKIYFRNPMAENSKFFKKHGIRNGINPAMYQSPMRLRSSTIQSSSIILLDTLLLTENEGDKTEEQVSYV

[2] = target: T1, 5-hydroxytryptamine receptor 2B; test: Agonist at human 5HT2B receptor expressed in HEK293 cells assessed as induction of calcium influx by FLIPR assay; type: functional, cell-based

Row | SMILES | Ki [1] [nM] | EC50 [2] [nM]
1 | COc1ccc2[nH]c3c(c2c1)CCNC3C (centres undefined) [ADRENOGLOMERULOTROPIN] | 491 | –
2 | Cn1ccc2cc3c(cc21)CCN3C(=O)Nc1cccnc1 | 4.3 | –
3 | CC[C@@H](CO)NC(=O)[C@@H]1C=C2c3cccc4[nH]cc(c34)C[C@H]2N(C)C1 [METHYLERGONOVINE] | 0.8 | 21.4
4 | Fc1ccc(N2CCN(CCC3OCCc4ccccc43)CC2)cc1 (centres undefined) | 69.6 | –
5 | COc1ccc2[nH]cc(CN)c2c1 | 1620 | –
6 | CC(NCCC(c1ccccc1)c1ccccc1)c1ccccc1 (centres undefined) [FENDILINE] | 3220 | –
7 | NC(=O)N1c2ccccc2CC(O)c2ccccc21 (centres undefined) [LICARBAZEPINE] | > 10000 | –
8 | COc1cc2c(CCNC(C)=O)c[nH]c2cc1F | 2500 | –
